Target: T1, MD-2 (Homo sapiens, UniProt Q9Y6Y9)
T1 sequence (Q9Y6Y9 19-160): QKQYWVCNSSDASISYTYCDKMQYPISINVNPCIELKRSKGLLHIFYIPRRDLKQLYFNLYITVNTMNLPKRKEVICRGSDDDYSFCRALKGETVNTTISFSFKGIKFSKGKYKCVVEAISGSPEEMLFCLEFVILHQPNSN
Test: quenching of MD-2 intrinsic Tyr/Trp fluorescence
Type: binding

Q: For CN1CC[C@]23c4c5ccc(O[C@@H]6O[C@H](C(=O)O)[C@@H](O)[C@H](O)[C@H]6O)c4O[C@H]2[C@@H](O)C=C[C@H]3[C@H]1C5 [M3G, morphine-3-glucuronide], which Kd is on record?
A: Its Kd is 1.5 ± 0.3 µM.

Reference: article PMC4250379 (Neuroscience, 2014)
